Measured values taken from ChEMBL document CHEMBL1201862, “PubChem BioAssay data set” (2004).
Calls of active or inactive are those of the source.

What was measured:
[1] = cells; assay type: functional
[2] = biological target: T1, Cysteine protease ATG4B (Homo sapiens, UniProt Q9Y4P1); assay type: functional;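 note: Fluorescence-based dose-response confirmation assay measuring inhibition of ATG4B activity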
T1 sequence (Q9Y4P1 whole entry): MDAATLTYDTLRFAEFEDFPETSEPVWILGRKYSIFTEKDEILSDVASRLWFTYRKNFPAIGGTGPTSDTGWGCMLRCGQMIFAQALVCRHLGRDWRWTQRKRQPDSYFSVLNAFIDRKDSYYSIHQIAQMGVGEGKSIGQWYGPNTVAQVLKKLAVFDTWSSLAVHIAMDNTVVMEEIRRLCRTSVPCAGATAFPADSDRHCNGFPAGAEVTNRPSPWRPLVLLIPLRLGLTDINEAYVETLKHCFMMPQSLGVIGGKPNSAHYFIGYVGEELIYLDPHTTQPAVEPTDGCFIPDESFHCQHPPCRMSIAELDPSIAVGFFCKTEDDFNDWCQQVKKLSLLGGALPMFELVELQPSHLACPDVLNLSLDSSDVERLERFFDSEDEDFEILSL

[3] = biological target: Phospholipase A2 (Homo sapiens, UniProt P04054); assay type: functional;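 note: confirmatory dose-response counterscreen on phospholipase A2, testing hits that came from an ultra-high-throughput screen for ATG4B inhibitors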
Phospholipase A2, sequence (P04054 whole entry): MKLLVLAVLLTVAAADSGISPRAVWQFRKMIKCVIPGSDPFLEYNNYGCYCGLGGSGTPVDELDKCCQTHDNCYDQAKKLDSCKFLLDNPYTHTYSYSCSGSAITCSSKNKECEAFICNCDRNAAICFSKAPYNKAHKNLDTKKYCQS

[4] = NIH-3T3 fibroblast cytotoxicity, dose response, cytotoxicity control, cell-based, fluorescence, Alamar Blue, secondary assay (AID 2327); assay type: functional;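 note: NIH-3T3 mouse fibroblasts cultured with fluconazole at 8 µg/mL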
[5] = C. albicans growth with fluconazole, confirmation, fluorescence, retest (AID 2467); assay type: functional, cell-based
[6] = cytotoxicity toward NIH3T3 fibroblasts, dose response, counter-screen, cell-based, ATP luminescence, mouse fibroblasts (AID 2010); assay type: functional;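 note: cells exposed to compound for about 90 hours before reading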
[7] = inhibitors of intracellular T. cruzi replication, confirmation, NIH3T3 host cells, beta-gal luminescence (AID 2044); assay type: functional, cell-based;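 note: intracellular parasites grown in NIH/3T3 mouse fibroblasts as host cells; luminescent beta-galactosidase reporter signal from transgenic T. cruzi replicating inside host cells; inhibitors lower the luminescence signal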
[8] = biological target: Heat shock protein HSP 90-alpha (Homo sapiens, UniProt P07900); assay type: functional, organism-based
[9] = THP-1 cell cytotoxicity, dose response, cytotoxicity control for Vif-APOBEC3G degradation inhibitor project, THP-1 cells (AID 1117359); assay type: functional; conditions: Human immunodeficiency virus 1, THP-1
[10] = biological target: Peroxisome proliferator-activated receptor gamma/Nuclear receptor coactivator 3 (Homo sapiens, UniProt P37231); assay type: functional;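 note: agonist potency for raising coactivator recruitment to the receptor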
Peroxisome proliferator-activated receptor gamma/Nuclear receptor coactivator 3, sequence (P37231 whole entry): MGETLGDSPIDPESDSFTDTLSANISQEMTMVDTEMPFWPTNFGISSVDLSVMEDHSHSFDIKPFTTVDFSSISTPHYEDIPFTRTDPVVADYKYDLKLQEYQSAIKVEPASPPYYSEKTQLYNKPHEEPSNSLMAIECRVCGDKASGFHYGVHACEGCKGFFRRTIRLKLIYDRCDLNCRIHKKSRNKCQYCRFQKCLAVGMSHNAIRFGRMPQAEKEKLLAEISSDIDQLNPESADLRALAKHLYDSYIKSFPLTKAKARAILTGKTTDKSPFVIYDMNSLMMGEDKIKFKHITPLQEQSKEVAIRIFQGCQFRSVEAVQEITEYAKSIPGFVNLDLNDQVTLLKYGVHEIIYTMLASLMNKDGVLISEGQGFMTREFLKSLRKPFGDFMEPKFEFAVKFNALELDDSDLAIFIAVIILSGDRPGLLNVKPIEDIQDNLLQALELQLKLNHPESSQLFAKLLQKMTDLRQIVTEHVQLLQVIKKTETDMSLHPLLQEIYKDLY
Peroxisome proliferator-activated receptor gamma/Nuclear receptor coactivator 3, sequence (Q9Y6Q9 whole entry, further chain): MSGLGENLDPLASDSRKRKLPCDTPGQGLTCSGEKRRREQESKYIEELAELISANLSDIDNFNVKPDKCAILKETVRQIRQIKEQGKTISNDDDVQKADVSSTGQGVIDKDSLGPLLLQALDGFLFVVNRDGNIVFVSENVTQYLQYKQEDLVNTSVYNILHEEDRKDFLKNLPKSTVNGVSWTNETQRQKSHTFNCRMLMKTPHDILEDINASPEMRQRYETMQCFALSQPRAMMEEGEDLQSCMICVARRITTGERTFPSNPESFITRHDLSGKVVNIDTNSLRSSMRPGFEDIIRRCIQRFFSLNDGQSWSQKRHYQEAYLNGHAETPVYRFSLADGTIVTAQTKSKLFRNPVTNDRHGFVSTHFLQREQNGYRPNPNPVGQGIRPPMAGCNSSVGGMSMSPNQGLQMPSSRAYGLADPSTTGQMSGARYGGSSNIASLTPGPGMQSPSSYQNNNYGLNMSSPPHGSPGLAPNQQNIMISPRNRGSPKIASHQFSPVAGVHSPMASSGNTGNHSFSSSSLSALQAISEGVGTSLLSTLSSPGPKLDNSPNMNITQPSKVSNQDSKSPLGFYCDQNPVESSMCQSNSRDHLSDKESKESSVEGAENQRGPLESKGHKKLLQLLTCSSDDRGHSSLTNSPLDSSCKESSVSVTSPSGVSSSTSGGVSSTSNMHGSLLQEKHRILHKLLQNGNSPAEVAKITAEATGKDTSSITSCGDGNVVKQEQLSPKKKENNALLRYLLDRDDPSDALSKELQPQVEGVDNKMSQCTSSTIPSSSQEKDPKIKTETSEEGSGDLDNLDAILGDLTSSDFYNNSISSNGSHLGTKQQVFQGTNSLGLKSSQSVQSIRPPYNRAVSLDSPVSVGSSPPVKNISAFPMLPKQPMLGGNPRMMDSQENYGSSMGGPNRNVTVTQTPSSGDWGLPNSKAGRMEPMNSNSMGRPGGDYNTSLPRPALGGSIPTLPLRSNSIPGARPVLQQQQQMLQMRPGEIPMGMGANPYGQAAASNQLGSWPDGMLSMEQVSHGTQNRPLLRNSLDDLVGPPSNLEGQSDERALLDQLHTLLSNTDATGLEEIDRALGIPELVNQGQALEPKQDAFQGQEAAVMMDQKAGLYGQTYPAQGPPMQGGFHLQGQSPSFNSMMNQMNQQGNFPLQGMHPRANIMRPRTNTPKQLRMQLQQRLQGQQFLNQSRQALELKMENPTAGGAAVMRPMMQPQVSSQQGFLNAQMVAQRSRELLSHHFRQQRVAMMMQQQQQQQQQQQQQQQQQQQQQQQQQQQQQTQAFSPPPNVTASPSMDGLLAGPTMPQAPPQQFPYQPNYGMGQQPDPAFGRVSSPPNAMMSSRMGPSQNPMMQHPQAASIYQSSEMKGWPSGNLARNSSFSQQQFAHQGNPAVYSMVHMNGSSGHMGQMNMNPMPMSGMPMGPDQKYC

[11] = biological target: Peroxisome proliferator-activated receptor gamma/Nuclear receptor coactivator 2 (Homo sapiens, UniProt P37231); assay type: functional;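 note: agonist potency for raising coactivator recruitment to the receptor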
[12] = biological target: Peroxisome proliferator-activated receptor gamma/Nuclear receptor coactivator 1 (Homo sapiens, UniProt P37231); assay type: functional;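 note: agonist potency as compounds enhance coactivator SRC-1 recruitment to PPARgamma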
Peroxisome proliferator-activated receptor gamma/Nuclear receptor coactivator 1, sequence (P37231 whole entry): as the sequence (P37231 whole entry) above
Peroxisome proliferator-activated receptor gamma/Nuclear receptor coactivator 1, sequence (Q15788 whole entry, further chain): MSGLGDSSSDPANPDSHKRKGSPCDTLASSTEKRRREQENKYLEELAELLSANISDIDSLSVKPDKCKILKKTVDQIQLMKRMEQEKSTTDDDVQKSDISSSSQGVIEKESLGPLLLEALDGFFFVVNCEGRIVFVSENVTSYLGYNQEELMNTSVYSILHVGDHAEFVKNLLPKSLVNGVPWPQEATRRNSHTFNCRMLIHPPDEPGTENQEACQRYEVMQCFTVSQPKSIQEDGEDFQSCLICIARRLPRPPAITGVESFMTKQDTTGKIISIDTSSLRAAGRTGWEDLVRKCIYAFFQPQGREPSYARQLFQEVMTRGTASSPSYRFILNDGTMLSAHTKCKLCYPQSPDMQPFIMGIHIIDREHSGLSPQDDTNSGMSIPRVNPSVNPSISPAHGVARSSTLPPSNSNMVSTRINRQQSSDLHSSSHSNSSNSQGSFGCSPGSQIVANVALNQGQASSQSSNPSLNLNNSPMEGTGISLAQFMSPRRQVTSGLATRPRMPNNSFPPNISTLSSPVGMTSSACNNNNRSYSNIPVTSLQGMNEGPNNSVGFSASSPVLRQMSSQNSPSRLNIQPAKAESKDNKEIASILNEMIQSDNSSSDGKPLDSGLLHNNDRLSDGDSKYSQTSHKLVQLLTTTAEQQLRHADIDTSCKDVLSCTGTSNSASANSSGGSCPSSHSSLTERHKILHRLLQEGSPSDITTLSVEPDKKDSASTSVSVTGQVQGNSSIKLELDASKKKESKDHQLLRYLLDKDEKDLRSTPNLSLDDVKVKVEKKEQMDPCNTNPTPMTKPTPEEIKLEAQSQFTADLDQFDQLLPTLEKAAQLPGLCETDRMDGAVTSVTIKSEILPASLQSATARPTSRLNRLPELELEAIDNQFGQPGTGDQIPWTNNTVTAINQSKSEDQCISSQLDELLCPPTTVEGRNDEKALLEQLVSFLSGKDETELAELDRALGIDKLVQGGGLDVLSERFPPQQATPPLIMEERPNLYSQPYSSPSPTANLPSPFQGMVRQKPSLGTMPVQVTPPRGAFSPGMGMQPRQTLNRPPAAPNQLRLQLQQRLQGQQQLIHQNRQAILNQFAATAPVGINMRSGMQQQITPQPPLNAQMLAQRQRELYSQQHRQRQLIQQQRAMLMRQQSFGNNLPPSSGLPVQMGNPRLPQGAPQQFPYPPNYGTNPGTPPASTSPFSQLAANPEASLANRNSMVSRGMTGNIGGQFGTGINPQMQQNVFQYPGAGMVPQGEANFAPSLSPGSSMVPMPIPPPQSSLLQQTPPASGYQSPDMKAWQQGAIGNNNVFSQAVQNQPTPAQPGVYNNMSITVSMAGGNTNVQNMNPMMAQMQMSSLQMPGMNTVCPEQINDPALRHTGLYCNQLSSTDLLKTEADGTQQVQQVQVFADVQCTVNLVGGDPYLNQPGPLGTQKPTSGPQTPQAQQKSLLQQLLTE

[13] = biological target: T2, Sentrin-specific protease 8 (Homo sapiens, UniProt Q96LD8); assay type: functional
T2 sequence (Q96LD8 whole entry): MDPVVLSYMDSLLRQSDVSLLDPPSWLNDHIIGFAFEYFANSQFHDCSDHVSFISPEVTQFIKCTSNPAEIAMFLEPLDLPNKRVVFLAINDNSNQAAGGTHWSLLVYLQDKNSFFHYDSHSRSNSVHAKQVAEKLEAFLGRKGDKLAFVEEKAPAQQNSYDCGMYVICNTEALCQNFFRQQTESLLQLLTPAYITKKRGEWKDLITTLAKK

[14] = biological target: T2, Sentrin-specific protease 8; assay type: functional; remark: listed apart in the source
[15] = Luminescence Cell-Based Dose Retest to Confirm Inhibitors of Cancer Stem Cells. [Related pubchem assays (depositor defined):AID2717, AID2721]; assay type: functional; conditions: Homo sapiens
[16] = biological target: T3, Heat shock factor protein 1 (Mus musculus, UniProt P38532); assay: inhibition of MG132-induced HSE-luciferase signal, confirmation, cell-based, NIH3T3, luminescence, dose retest (AID 2382); assay type: functional;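 note: NIH3T3 fibroblasts with HSF1-driven luciferase reporter stressed by proteasome inhibitor MG132; luminescence from HSF1-driven luciferase expression after 8 hours of MG132 stress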
T3 sequence (P38532 whole entry): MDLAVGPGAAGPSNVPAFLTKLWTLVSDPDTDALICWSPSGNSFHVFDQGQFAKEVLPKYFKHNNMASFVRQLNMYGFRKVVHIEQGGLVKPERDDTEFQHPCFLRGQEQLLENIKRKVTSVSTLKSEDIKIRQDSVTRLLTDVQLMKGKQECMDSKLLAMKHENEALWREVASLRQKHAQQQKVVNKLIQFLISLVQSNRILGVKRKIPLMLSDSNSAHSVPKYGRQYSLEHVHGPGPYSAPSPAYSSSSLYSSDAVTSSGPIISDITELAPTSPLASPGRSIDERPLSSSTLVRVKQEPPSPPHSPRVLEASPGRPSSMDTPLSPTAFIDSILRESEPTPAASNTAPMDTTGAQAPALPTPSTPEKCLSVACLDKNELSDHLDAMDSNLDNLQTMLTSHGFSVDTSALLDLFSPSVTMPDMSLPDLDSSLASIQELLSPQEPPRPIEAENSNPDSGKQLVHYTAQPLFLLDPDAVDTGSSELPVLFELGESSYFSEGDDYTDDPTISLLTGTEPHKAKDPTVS

[17] = LGR2 antagonists, dose response, cell-based, HEK293, CRE-luciferase reporter, cherry pick, set 2 (AID 743343); assay type: functional;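 note: transfected cells were stimulated with diluted bursicon conditioned medium after compound addition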
[18] = HEK293 cell cytotoxicity, dose response, cytotoxicity control, plate reader, cherry-picked samples (AID 743446); assay type: functional, cell-based
[19] = A549 cell cytotoxicity, dose response, cytotoxicity control, plate reader, cherry-pick, antagonist series (AID 743412); assay type: functional, cell-based
[20] = MC4R antagonists, dose response, counter-screen for LGR2 antagonist project, cell-based, plate reader, cherry pick (AID 743444); assay type: functional;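 note: transfected HEK 293 cells stimulated with alpha-MSH peptide; potency of inhibitors of the alpha-MSH evoked signal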
[21] = test system: P388; assay: cells; assay type: functional; conditions: Mus musculus
[22] = test system: P388/ADR; assay: cells; assay type: functional; conditions: Mus musculus
[23] = test system: SN12K1; assay: cells; assay type: functional; conditions: Homo sapiens
[24] = P. falciparum Dd2 growth inhibitors, dose response, SYBR Green, cherry-picked samples (AID 1159567); assay type: functional, cell-based
[25] = P. falciparum Dd2 growth inhibitors, dose response, SYBR Green, dry powder samples (AID 1159566); assay type: functional, cell-based;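 note: potency for growth inhibition with lower SYBR green DNA signal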
[26] = P. falciparum 3D7-ScDHODH growth inhibitors, dose response, SYBR Green, dry powder samples (AID 1159570); assay type: functional, cell-based;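 note: parasite growth measured after 72 hours of compound exposure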
[27] = P. falciparum ATP4 D1247Y mutant growth inhibitors, dose response, NITD609-resistant line, SYBR Green, dry powder (AID 1159571); assay type: functional, cell-based;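 note: parasites synchronized at ring stage by sorbitol before testing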
[28] = biological target: Paired box protein Pax-8 (Homo sapiens, UniProt Q06710); assay: inhibitors of PAX8-driven TPO luciferase reporter, dose response, RMG-I cells, cherry-pick (AID 687027); assay type: functional, cell-based;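 note: luciferase reporter driven by Pax8 target thyroperoxidase promoter measured by SteadyGlo luminescence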
Paired box protein Pax-8, sequence (Q06710 whole entry): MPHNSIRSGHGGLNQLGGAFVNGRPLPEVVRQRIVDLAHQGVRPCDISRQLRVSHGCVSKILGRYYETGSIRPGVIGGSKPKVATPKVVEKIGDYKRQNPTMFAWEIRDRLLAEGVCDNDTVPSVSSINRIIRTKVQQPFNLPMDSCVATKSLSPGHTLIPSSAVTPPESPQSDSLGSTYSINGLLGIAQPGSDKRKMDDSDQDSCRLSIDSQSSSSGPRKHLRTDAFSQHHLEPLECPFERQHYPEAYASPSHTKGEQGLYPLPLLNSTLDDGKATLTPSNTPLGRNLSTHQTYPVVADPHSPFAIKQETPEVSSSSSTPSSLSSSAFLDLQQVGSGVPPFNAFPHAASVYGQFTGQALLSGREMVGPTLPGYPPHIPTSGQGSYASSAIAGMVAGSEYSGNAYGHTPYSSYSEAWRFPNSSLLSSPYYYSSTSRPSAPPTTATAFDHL

[29] = cytotoxicity in OVCAR8 ovarian cancer cells, dose response, PAX8 project, cell-based, plate reader, dry powder samples (AID 743197); assay type: functional; conditions: OVCAR-8
[30] = inhibitors of HIV Env-driven cell fusion, dose response, cherry-pick (AID 652057); assay type: functional, cell-based
[31] = inhibitors of clade B AD8 Env fusion, dose response, cell-based, cherry-pick (AID 652062); assay type: functional;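 note: luciferase signal from cell-cell fusion driven by HIV-1 clade B AD8 Env; potency is for inhibitors of fusion seen as a drop in luminescence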
[32] = ZM109 Env clade C HIV-1 fusion inhibitors, dose response, HeLa effector, CEM target cells, luciferase, cherry-pick (AID 652058); assay type: functional, cell-based

SMILES: COc1ccc(C(C)=O)cc1COC(=O)c1ccc2ccccc2n1
- IC50 [1]: 10.4 µM (active)

SMILES: COc1cc(OC)cc(-c2nc3ccccc3c(=O)n2OC(=O)c2ccc(C)c(C)c2)c1
- IC50 [2]: 4.38 µM (active)
- IC50 [3]: 5.9 µM (active)

SMILES: CCn1c(=O)c(C(=O)Nc2ncccc2C)c(O)c2ccccc21
- EC50 [4]: > 150 µM (inconclusive)
- IC50 [1]: 45.2 µM (active)
- EC50 [5]: 0.119 µM (active)

SMILES: CN1C(=O)C(N=Nc2ccccc2C(=O)O)N(C)C1=S (stereo not drawn)
- IC50 [2]: 16.1 µM (active)
- IC50 [3]: 10.3 µM (active)

SMILES: O=c1c2ccccc2nc(-c2ccc(-c3ccccc3)cc2)n1-c1ccncc1
- EC50 [6]: > 60 µM (not active)
- EC50 [7]: 0.398 µM (active)
- AC50 [8]: 2.73 µM (active)

SMILES: COc1ccc(NC(=O)CC2Nc3cccc4cccc(c34)NC2=O)cc1 (stereo not drawn)
- CC50 [9]: > 40 µM (active)

SMILES: Cc1ccc(NCCC(=O)c2cccs2)cc1Cl
- IC50 [1]: 28.8 µM (active)

SMILES: COc1ccc(-c2cc(-c3cccs3)c(C#N)c(SCC(=O)NCc3ccccc3OC)n2)cc1
- EC50 [10]: 13 µM (not active)
- EC50 [11]: 8.22 µM (active)
- EC50 [12]: 10.3 µM (not active)

SMILES: CC(=O)Nc1ccc(OCC(O)CNC2CCCC2)cc1 (stereo not drawn)
- CC50 [9]: > 40 µM (active)

SMILES: Cc1nn(-c2ccccn2)c2c1-c1nc(N3CCOCC3)ncc1CC2
- EC50 [10]: > 79.4 µM (not active)
- EC50 [11]: > 79.4 µM (not active)
- EC50 [12]: > 79.4 µM (not active)

SMILES: COc1ccc(NC(=O)NNc2cc(N3CCOCC3)nc(N3CCOCC3)n2)cc1
- IC50 [13]: 9.34 µM (active)
- IC50 [14]: 7.36 µM (active)

SMILES: CCCn1c(NC(=O)c2ccco2)nc2ccccc21
- CC50 [9]: > 40 µM (active)

SMILES: Oc1ccc(C2=NN(c3ccccc3)C(c3ccc(F)cc3)C2)cc1 (stereo not drawn)
- AC50 [15]: 2.97 µM (active)
- EC50 [16]: > 195 µM (not active)
- AC50 [8]: 4.34 µM (active)

SMILES: COc1cc(=O)n(C)c2c(O)cccc12
- IC50 [13]: 11.5 µM (active)
- IC50 [14]: > 100 µM (inactive)

SMILES: Cc1ccc2[nH]c(CCc3nc4cc(C)ccc4[nH]3)nc2c1
- IC50 [1]: 35.3 µM (active)

SMILES: Cc1cccc(-n2c(-c3cccs3)nc3ccccc3c2=O)c1
- IC50 [2]: 10 µM (active)
- IC50 [3]: 7.49 µM (active)

SMILES: CC(C)(C)OC(=O)N1Cc2ccccc2C[C@H]1C(=O)O
- IC50 [13]: 12.8 µM (active)
- IC50 [14]: > 100 µM (inactive)

SMILES: CCOc1cccc2cc(C(=O)Nc3cc(C)on3)c(=O)oc12
- EC50 [10]: 30.1 µM (not active)
- EC50 [11]: 22.4 µM (not active)
- EC50 [12]: 24.6 µM (not active)

SMILES: Cc1ccc(Nc2nc3ccccc3s2)c(C)c1
- AC50 [17]: 16.1 µM (active)
- AC50 [18]: > 52 µM (inactive)
- AC50 [19]: 37.8 µM (active)
- AC50 [20]: 14.3 µM (active)

SMILES: CC(C)(C)C(O)C(Cc1ccccc1Cl)n1cncn1 (stereo not drawn)
- AC50 [8]: < 0.195 µM (active)

SMILES: CC(OC(=O)c1cc2sccc2n1C)C(=O)NCc1cccs1 (stereo not drawn)
- EC50 [10]: > 79.4 µM (not active)
- EC50 [11]: > 79.4 µM (not active)
- EC50 [12]: > 79.4 µM (not active)

SMILES: COC/C=C/C1=CC2=CC(=O)C(C)(OC(=O)c3cnc4ccccc4n3)C(=O)C2=CN1CCOC (stereo not drawn)
- IC50 [13]: 11.5 µM (active)
- IC50 [14]: 13.1 µM (active)

SMILES: COc1ccc(N2C(=O)Cc3ccccc3C2=O)cc1
- IC50 [13]: 5.08 µM (active)
- IC50 [14]: > 100 µM (inactive)

SMILES: CN(C)CCNC(=O)c1cccc2ccc(-c3ccc(Br)cc3)nc12
- GI50 [21]: 0.374 µM (active)
- GI50 [22]: 0.512 µM (active)
- GI50 [23]: 0.895 µM (active)

SMILES: COc1ccc(C2COc3c(ccc(O)c3C)C2)cc1OC (stereo not drawn)
- GI50 [21]: 40.9 µM (inactive)
- GI50 [22]: 35.9 µM (inactive)
- GI50 [23]: 45.8 µM (inactive)

SMILES: O=C1C=CN(C2OC(CO)C(O)C2O)C(=O)C1 (stereo not drawn)
- GI50 [21]: 0.718 µM (active)
- GI50 [22]: 0.843 µM (active)

SMILES: CCCNC(=O)c1cc2c(c(-c3cccc(-c4cc5ccccc5o4)c3)n1)[C@H](CCO)N(C(=O)NC(C)C)C2
- AC50 [24]: 1.87 µM (active)
- AC50 [25]: 1.75 µM (active)
- AC50 [26]: 2.97 µM (active)
- AC50 [27]: 2.39 µM (active)

SMILES: CCCC#Cc1ccc2c(c1)O[C@H](CN(C)Cc1ccccc1)[C@@H](C)CN([C@H](C)CO)S2(=O)=O
- AC50 [28]: 16.2 µM (active)
- AC50 [29]: 58.3 µM (active)

SMILES: COc1ccc(NC(=O)Nc2ccc3c(c2)C(=O)N([C@@H](C)CO)C[C@H](C)[C@H](CN(C)S(=O)(=O)c2ccc(Cl)cc2)O3)cc1
- AC50 [30]: 5.71 µM (active)
- AC50 [31]: 5.38 µM (active)
- AC50 [32]: 4.73 µM (active)

SMILES: C[C@H]1CN([C@@H](C)CO)C(=O)Cc2cc(NC(=O)C3CCCCC3)ccc2O[C@H]1CN(C)S(=O)(=O)c1ccc(Cl)cc1
- AC50 [30]: 8.97 µM (active)
- AC50 [31]: 22.6 µM (active)
- AC50 [32]: 6.75 µM (active)

SMILES: Cc1ccccc1S(=O)(=O)N(C)C[C@@H]1OCc2ccccc2-c2c(n(C)c3ccccc23)C(=O)N([C@@H](C)CO)C[C@@H]1C
- AC50 [24]: 1.63 µM (active)
- AC50 [25]: 0.659 µM (active)
- AC50 [26]: 1.02 µM (active)
- AC50 [27]: 0.812 µM (active)

SMILES: CC(=O)OCC1OC(NC(=O)N(CCCl)N=O)C(OC(C)=O)C(OC(C)=O)C1OC(C)=O (stereo not drawn)
- GI50 [21]: 26.7 µM (inactive)
- GI50 [22]: 44.9 µM (inactive)
- GI50 [23]: > 100 µM (inactive)

SMILES: CC(=O)OC(C)(C)/C=C/C(=O)[C@](C)(O)[C@H]1[C@H](O)C[C@@]2(C)[C@@H]3CC=C4[C@@H](C=C(O)C(=O)C4(C)C)[C@]3(C)C(=O)C[C@]12C [CUCURBITACIN E]
- GI50 [21]: 0.0379 µM (active)
- GI50 [22]: 0.0375 µM (active)
- GI50 [23]: 0.0336 µM (active)
